target: T1, Human MGAT-2 (Homo sapiens, UniProt Q3SYC2); test: MGAT LCMS Assay; type: biochemical; conditions: human MGAT2 membranes expressed in Sf9 cells; 100 μM 2-oleoylglycerol, 15 μM oleoyl-coenzyme A; read-out: h-MGAT LCMS IC50
T1 construct: made in house; host or cells: Sf9 cells (membrane preparation)
Method: Assay plates were run through a fully automated robotics system and shaken for 5 seconds every minute for a total 10 minutes. The reactions were then quenched with 120 μL of ice cold methanol containing 1 μg/mL 1,2-distearoyl-rac-glycerol as the internal standard. Plates were shaken for 2 minutes and spun down to remove protein precipitation. After the spin, samples were transferred to LC/MS compatible PCR plates. For LC/MS analysis, a ThermoFisher Surveyor pump, utilizing a Waters […]® C8, 50×2.1 mm column, was used for the chromatography of enzyme products. The buffer system consists of 0.1% formic acid in water with a mobile phase consisting 0.1% formic acid in methanol. […] The first 0.5 minutes of each injection was diverted to waste to eliminate the presence of Phosphate buffer in the enzymatic reaction. The column was run at 0.6 mL/min and a temperature of 65° C. Mass spectrometry analysis of the samples was performed on a ThermoFisher Quantum Triple quad utilizing APCI (+) as the mode of ionization. […] The ratio of Diolein to internal standard (Peak Area Ratio) is utilized to calculate IC50 values.

T1 sequence (Q3SYC2 whole entry): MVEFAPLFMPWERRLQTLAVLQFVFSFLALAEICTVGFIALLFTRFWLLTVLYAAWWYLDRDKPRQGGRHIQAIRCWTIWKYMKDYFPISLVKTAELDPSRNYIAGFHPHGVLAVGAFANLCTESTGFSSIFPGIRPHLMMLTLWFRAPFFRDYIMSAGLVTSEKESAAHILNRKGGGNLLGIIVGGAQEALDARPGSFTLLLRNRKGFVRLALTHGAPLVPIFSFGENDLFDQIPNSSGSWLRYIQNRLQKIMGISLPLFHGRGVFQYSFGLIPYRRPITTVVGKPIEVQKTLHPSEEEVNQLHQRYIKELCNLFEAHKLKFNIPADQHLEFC

IC50 | Compound
0.288 µM | 5-Chloro-6-cyclohexyl-N-(4-methoxyphenyl)-2-oxo-4-(p- tolyl)-1,2-dihydropyridine-3-carboxamide [Example 35]
0.005 µM | COc1ccc(NC(=O)c2c(-c3ccc(C)cc3)cc(-c3nc(-c4ccccc4)oc3C)[nH]c2=O)cc1 [Example 4, N-(4-Methoxyphenyl)-6-(5-methyl-2-phenyloxazol-4-yl)-2-oxo-4-(p-tolyl)-1,2-dihydropyridine-3-carboxamide]
0.05 µM | CCOc1ccc(NC(=O)c2c(-c3cnc(N(C)C)s3)cc(C3CCCCC3)[nH]c2=O)cc1 [Example 8, 6-Cyclohexyl-4-(2-(dimethylamino)thiazol-5-yl)-N-(4-ethoxyphenyl)-2-oxo-1,2-dihydropyridine-3-carboxamide]
0.293 µM | CCOc1ccc(NC(=O)c2c(-c3cnc(N(C)C)s3)cc(C3(O)CCCCC3)[nH]c2=O)cc1 [Example 9, 4-(2-(Dimethylamino)thiazol-5-yl)-N-(4-ethoxyphenyl)-6-(1-hydroxycyclohexyl)-2-oxo-1,2-dihydropyridine-3-carboxamide]
0.017 µM | CCOc1ccc(NC(=O)c2c(-c3cnc(N(C)C)s3)cc(C3(F)CCCCC3)[nH]c2=O)cc1 [Example 10, 4-(2-(Dimethylamino)thiazol-5-yl)-N-(4-ethoxyphenyl)-6-(1-fluorocyclohexyl)-2-oxo-1,2-dihydropyridine-3-carboxamide]
0.1 µM | CCCCCc1ccc(-c2cc(-c3ccc(C)cc3)c(NC(=O)c3ccccc3)c(=O)[nH]2)cc1 [Example 14, N-(2-Oxo-6-(4-pentylphenyl)-4-(p-tolyl)-1,2-dihydropyridin-3-yl)benzamide]
0.005 µM | CCOc1ccc(NC(=O)c2c(-c3ccc(C)cc3)c(I)c(C3CCCCC3)[nH]c2=O)cc1 [Example 15, 6-Cyclohexyl-N-(4-ethoxyphenyl)-5-iodo-2-oxo-4-(p-tolyl)-1,2-dihydropyridine-3-carboxamide]
0.024 µM | CCCCCc1ccc(-c2cc(-c3ccc(C)cc3)c(C(=O)Nc3cccnc3)c(=O)[nH]2)cc1 [Example 23, 2-Oxo-6-(4-pentylphenyl)-N-(pyridin-3-yl)-4-(p-tolyl)-1,2-dihydropyridine-3-carboxamide]
0.072 µM | CCOc1ccc(NC(=O)c2c(-c3ccc(C)cc3)c(C)c(C3CCCCC3)[nH]c2=O)cc1 [Example 25, 6-Cyclohexyl-N-(4-ethoxyphenyl)-5-methyl-2-oxo-4-(p-tolyl)-1,2-dihydropyridine-3-carboxamide]
0.082 µM | C=Cc1c(-c2ccc(CCCCC)cc2)[nH]c(=O)c(C(=O)Nc2ccc(OCC)cc2)c1-c1ccc(C)cc1 [Example 26, N-(4-Ethoxyphenyl)-2-oxo-6-(4-pentylphenyl)-4-(p-tolyl)-5-vinyl-1,2-dihydropyridine-3-carboxamide]
0.086 µM | CCCCCc1ccc(-c2cc(-c3ccc(C)cc3)c(C(=O)Nc3ccc(OCC)cc3)c(=O)[nH]2)cc1 [Example 27, N-(4-Ethoxyphenyl)-2-oxo-6-(4-pentylphenyl)-4-(p-tolyl)-1,2-dihydropyridine-3-carboxamide]
0.137 µM | CCOc1ccc(NC(=O)c2c(-c3ccc(C)cc3)cc(C3CCCCC3)[nH]c2=O)cc1 [Example 28, 6-Cyclohexyl-N-(4-ethoxyphenyl)-2-oxo-4-(p-tolyl)-1,2-dihydropyridine-3-carboxamide]
0.144 µM | CCOc1ccc(NC(=O)c2c(-c3ccc(C)cc3)cc(C3CCCC3)[nH]c2=O)cc1 [Example 29, 6-Cyclopentyl-N-(4-ethoxyphenyl)-2-oxo-4-(p-tolyl)-1,2-dihydropyridine-3-carboxamide]
0.15 µM | CCCCCc1ccc(-c2cc(-c3ccc(C)cc3)c(-c3nn[nH]n3)c(=O)[nH]2)cc1 [Example 30, 6-(4-Pentylphenyl)-3-(2H-tetrazol-5-yl)-4-(p-tolyl)pyridin-2(1H)-one]
0.178 µM | CC/C=C/c1c(-c2ccc(CCCCC)cc2)[nH]c(=O)c(C(=O)Nc2ccc(OCC)cc2)c1-c1ccc(C)cc1 [Example 31, (E)-5-(But-1-en-1-yl)-N-(4-ethoxyphenyl)-2-oxo-6-(4-pentylphenyl)-4-(p-tolyl)-1,2-dihydropyridine-3-carboxamide]
0.193 µM | CCCCCc1ccc(-c2[nH]c(=O)c(C(=O)Nc3ccc(OCC)cc3)c(-c3ccc(C)cc3)c2-c2ccccc2)cc1 [Example 32, N-(4-Ethoxyphenyl)-2-oxo-6-(4-pentylphenyl)-5-phenyl-4-(p-tolyl)-1,2-dihydropyridine-3-carboxamide]
0.218 µM | CCCCCc1ccc(-c2cc(-c3ccc(C)cc3)c(C(=O)Nc3ccccc3)c(=O)[nH]2)cc1 [Example 33, 2-Oxo-6-(4-pentylphenyl)-N-phenyl-4-(p-tolyl)-1,2-dihydropyridine-3-carboxamide]
0.223 µM | COc1ccc(NC(=O)c2c(-c3ccc(C)cc3)cc(C3CCCCC3)[nH]c2=O)cc1 [Example 34, 6-Cyclohexyl-N-(4-methoxyphenyl)-2-oxo-4-(p-tolyl)-1,2-dihydropyridine-3-carboxamide]

Compound | IC50
COc1ccc(NC(=O)c2c(-c3ccc(C)cc3)cc(-c3ccc(OCCCC(F)(F)F)cc3)[nH]c2=O)cc1 [Example 2, N-(4-Methoxyphenyl)-2-oxo-4-(p-tolyl)-6-(4-(4,4,4-trifluorobutoxy)phenyl)-1,2-dihydropyridine-3-carboxamide] | 0.03 µM
COc1ccc(NC(=O)c2c(-c3ccc(C)cc3)c(F)c(-c3ccc(OCCCC(F)(F)F)cc3)[nH]c2=O)cc1 [Example 3, 5-Fluoro-N-(4-methoxyphenyl)-2-oxo-4-(p-tolyl)-6-(4-(4,4,4-trifluorobutoxy)phenyl)-1,2-dihydropyridine-3-carboxamide] | 0.019 µM
CCOc1ccc(NC(=O)c2c(-c3ccc(C)cc3)cc(-c3ccc(OCCCC(F)(F)F)cc3)[nH]c2=O)cc1 [Example 5, N-(4-Ethoxyphenyl)-2-oxo-4-(p-tolyl)-6-(4-(4,4,4-trifluorobutoxy)phenyl)-1,2-dihydropyridine-3-carboxamide] | 0.021 µM
Cc1ccc(-c2c(Br)c(-c3ccc(OCCCC(F)(F)F)cc3)[nH]c(=O)c2-c2nnn[nH]2)cc1 [Example 6, 5-Bromo-3-(1H-tetrazol-5-yl)-4-(p-tolyl)-6-(4-(4,4,4-trifluorobutoxy)phenyl)pyridin-2(1H)-one] | 0.079 µM
Cc1ccc(-c2c(C)c(-c3ccc(OCCCC(F)(F)F)cc3)[nH]c(=O)c2-c2nnn[nH]2)cc1 [Example 7, 5-Methyl-3-(1H-tetrazol-5-yl)-4-(p-tolyl)-6-(4-(4,4,4-trifluorobutoxy)phenyl)pyridin-2(1H)-one] | 0.009 µM
CC(C)(C)c1ccc(-c2cc(-c3ccc(OCCCC(F)(F)F)cc3)[nH]c(=O)c2C(=O)O)cc1 [Example 11, 4-(4-(tert-Butyl)phenyl)-2-oxo-6-(4-(4,4,4-trifluorobutoxy)phenyl)-1,2-dihydropyridine-3-carboxylic acid] | 0.461 µM
CC(C)(C)c1ccc(-c2cc(-c3ccc(OCCCC(F)(F)F)cc3)[nH]c(=O)c2C(=O)NS(=O)(=O)C2CC2)cc1 [Example 12, 4-(4-(tert-Butyl)phenyl)-N-(cyclopropylsulfonyl)-2-oxo-6-(4-(4,4,4-trifluorobutoxy)phenyl)-1,2-dihydropyridine-3-carboxamide] | 0.056 µM
Cc1ccc(-c2c(F)c(-c3ccc(OCCCC(F)(F)F)cc3)[nH]c(=O)c2-c2nnn[nH]2)cc1 [Example 17, 5-Fluoro-3-(1H-tetrazol-5-yl)-4-(p-tolyl)-6-(4-(4,4,4-trifluorobutoxy)phenyl)pyridin-2(1H)-one] | 0.298 µM
Cc1ccc(-c2c(Cl)c(-c3ccc(OCCCC(F)(F)F)cc3)[nH]c(=O)c2-c2nnn[nH]2)cc1 [Example 19, 5-Chloro-3-(1H-tetrazol-5-yl)-4-(p-tolyl)-6-(4-(4,4,4-trifluorobutoxy)phenyl)pyridin-2(1H)-one] | 0.1 µM
CCc1ccc(-c2cc(-c3ccc(OCCCC(F)(F)F)cc3F)[nH]c(=O)c2-c2nn[nH]n2)s1 [Example 20, 4-(5-Ethylthiophen-2-yl)-6-(2-fluoro-4-(4,4,4-trifluorobutoxy)phenyl)-3-(2H-tetrazol-5-yl)pyridin-2(1H)-one] | 0.005 µM
CCc1ccc(-c2cc(-c3ccc(OCCCC(F)(F)F)cc3)[nH]c(=O)c2C(=O)NS(C)(=O)=O)s1 [Example 21, 4-(5-Ethylthiophen-2-yl)-N-(methylsulfonyl)-2-oxo-6-(4-(4,4,4-trifluorobutoxy)phenyl)-1,2-dihydropyridine-3-carboxamide] | 0.021 µM
CCc1ccc(-c2cc(-c3ccc(OCCCC(F)(F)F)cc3Cl)[nH]c(=O)c2-n2nn[nH]c2=O)s1 [Example 22, 6-(2-Chloro-4-(4,4,4-trifluorobutoxy)phenyl)-4-(5-ethylthiophen-2-yl)-3-(5-oxo-4,5-dihydro-1H-tetrazol-1-yl)pyridin-2(1H)-one] | 0.252 µM
CCOc1ccc(NC(=O)c2c(-c3ccc(C)cc3)c(C)c(-c3ccc(OCCCC(F)(F)F)cc3)[nH]c2=O)cc1 [Example 24, N-(4-Ethoxyphenyl)-5-methyl-2-oxo-4-(p-tolyl)-6-(4-(4,4,4-trifluorobutoxy)phenyl)-1,2-dihydropyridine-3-carboxamide] | 0.039 µM
Cc1ccc(-c2c(Br)c(-c3ccc(OCCCC(F)(F)F)cc3)[nH]c(=O)c2-c2nn[nH]n2)cc1C [Example 36, 5-Bromo-4-(3,4-dimethylphenyl)-3-(2H-tetrazol-5-yl)-6-(4-(4,4,4-trifluorobutoxy)phenyl)pyridin-2(1H)-one] | 0.311 µM
